Data from patent US8728516B2, “Stabilized lipid formulation of apoptosis promoter” (AbbVie Inc., priority 2009, dated 2014).
Each block holds one compound with its values, some of them ahead of it.

Columns and labels:
[1] = Drug solubility in ternary excipient systems (Example 2); format: physicochemical; conditions: 10% salt, 20% free base by weight
Source text: Solvents evaluated included Labrafil M 1944 CS™, Imwitor 742™ oleic acid, Capmul PG-8™, Capmul PG-12™, Lauroglycol 90™ (propylene glycol monolaurate, available from Gattefosse) and Phosal 53 MCT™. Surfactants evaluated included Tween 80™, Cremophor RH40™, Gelucire 44/14™ (polyoxyethylene glyceryl laurate, available from Gattefosse) and Labrasol™.

[2] = Sulfoxide formation, free base vs bis-HCl salt in lipid solution (Example 3); format: physicochemical; conditions: lipid solutions (PE-91, LOT-343) aged at 40°C for up to 3 weeks
Experimental: The solvent system in solution A is Phosal 53 MCT™/ethanol, 9:1 v/v; and in solution B is Labrafil M 1944 CS™/oleic acid/polysorbate 80, 30%/40%/30% by weight. (Labrafil M 1944 CS™ of Gattefossé contains polyoxyethylene glyceryl monooleate.) The three-week study was conducted at 40° C. without nitrogen purging of headspace. […] No antioxidant was included, nor was headspace nitrogen purging performed.

[3] = Antioxidant testing, two-week stress test (Example 6); format: physicochemical; conditions: for inhibition of oxidative degradation: ABT-263 free base 100 mg/g in LIT-433 vehicle system, at the concentrations tested
[4] = BHA as antioxidant in ternary lipid systems (Example 7); format: physicochemical
Experimental: A full report of this study is found in Example 7 herein.
Testing was done in stress conditions at 40° C. without nitrogen purging.

[5] = format: physicochemical
Source text: Due to poor lipid solubility of NaMTBS, an alternative way of introducing it to the lipid solution is by adding a concentrated aqueous stock solution of NaMTBS to the lipid solution.

[6] = Storage stability of prototype capsules with and without NaMTBS (Example 12); format: physicochemical; conditions: prototype ABT-263 capsules, especially at 40° C. and 75% RH
Source text: The only difference between the two batches is presence or absence of antioxidant (sodium metabisulfite). The liquids having the composition shown in Table 16 were encapsulated in size 0 hard gelatin capsules and the capsules placed in blister packaging for a chemical stability study. Water content shown in Table 17 is as determined by analysis, and is not directly related to amount of water added with NaMTBS and edetate calcium disodium as in Table 16.

[7] = Sulfoxide formation in various lipid solutions, two-week stress test (Example 4); format: physicochemical; conditions: in Labrafil M 1944 CS and Plurol Oleique CC497; two-week stress test 40°C
[8] = C8LL (Capmul PG-8/Labrafil M 1944 CS/Labrasol) 40:40:20
[9] = C12LT (Capmul PG-12/Labrafil M 1944 CS/Tween 80) 30:40:30
[10] = C12LT (Capmul PG-12/Labrafil M 1944 CS/Tween 80) 35:40:25
[11] = C12LT (Capmul PG-12/Labrafil M 1944 CS/Tween 80) 40:30:30
[12] = C12LT (Capmul PG-12/Labrafil M 1944 CS/Tween 80) 45:30:25
[13] = LLC (Lauroglycol 90/Labrafil M 1944 CS/Cremophor RH40) 45:30:25
[14] = LLL (Lauroglycol 90/Labrafil M 1944 CS/Labrasol) 40:40:20
[15] = LLL (Lauroglycol 90/Labrafil M 1944 CS/Labrasol) 50:30:20
[16] = LOC (Labrafil M 1944 CS/oleic acid/Cremophor RH40) 30:60:10
[17] = LOC (Labrafil M 1944 CS/oleic acid/Cremophor RH40) 40:50:10
[18] = LOT (Labrafil M 1944 CS/oleic acid/Tween 80) 30:40:30
[19] = LOT (Labrafil M 1944 CS/oleic acid/Tween 80) 30:45:25
[20] = LOT (Labrafil M 1944 CS/oleic acid/Tween 80) 40:30:30
[21] = LOT (Labrafil M 1944 CS/oleic acid/Tween 80) 40:35:25
[22] = OLL (oleic acid/Labrafil M 1944 CS/Labrasol) 40:40:20
[23] = OLL (oleic acid/Labrafil M 1944 CS/Labrasol) 50:30:20
[24] = OLL (oleic acid/Labrafil M 1944 CS/Labrasol) 50:40:10
[25] = OLL (oleic acid/Labrafil M 1944 CS/Labrasol) 60:30:10

- ABT-263 solubility [1, 8]: ✓
- ABT-263 solubility [1, 9]: ✓
- ABT-263 solubility [1, 10]: ✓
- ABT-263 solubility [1, 11]: ✓
- ABT-263 solubility [1, 12]: ✓
- ABT-263 solubility ([1]; ILC (Imwitor 742/Labrafil M 1944 CS/Cremophor RH40) 40:40:20): ✓
- ABT-263 solubility ([1]; ILC (Imwitor 742/Labrafil M 1944 CS/Cremophor RH40) 50:30:20): ✓
- ABT-263 solubility ([1]; ILC (Imwitor 742/Labrafil M 1944 CS/Cremophor RH40) 50:40:10): ✓
- ABT-263 solubility ([1]; ILC (Imwitor 742/Labrafil M 1944 CS/Cremophor RH40) 60:30:10): ✓
- ABT-263 solubility ([1]; ILL (Imwitor 742/Labrafil M 1944 CS/Labrasol) 40:40:20): ✓
- ABT-263 solubility ([1]; ILL (Imwitor 742/Labrafil M 1944 CS/Labrasol) 50:30:20): ✓
- ABT-263 solubility ([1]; ILL (Imwitor 742/Labrafil M 1944 CS/Labrasol) 50:40:10): ✓
- ABT-263 solubility ([1]; ILL (Imwitor 742/Labrafil M 1944 CS/Labrasol) 60:30:10): ✓
- ABT-263 solubility ([1]; LIT (Labrafil M 1944 CS/Imwitor 742/Tween 80) 30:40:30): ✓
- ABT-263 solubility ([1]; LIT (Labrafil M 1944 CS/Imwitor 742/Tween 80) 30:45:25): ✓
- ABT-263 solubility ([1]; LIT (Labrafil M 1944 CS/Imwitor 742/Tween 80) 40:30:30): ✓
- ABT-263 solubility ([1]; LIT (Labrafil M 1944 CS/Imwitor 742/Tween 80) 40:35:25): ✓
- ABT-263 solubility [1, 13]: ✓
- ABT-263 solubility [1, 14]: ✓
- ABT-263 solubility [1, 15]: ✓
- ABT-263 solubility ([1]; LLL (Lauroglycol 90/Labrafil M 1944 CS/Labrasol) 50:40:10): ✓
- ABT-263 solubility ([1]; LLL (Lauroglycol 90/Labrafil M 1944 CS/Labrasol) 60:30:10): ✓
- ABT-263 solubility [1, 16]: ✓
- ABT-263 solubility [1, 17]: ✓
- ABT-263 solubility [1, 18]: ✓
- ABT-263 solubility [1, 19]: ✓
- ABT-263 solubility [1, 20]: ✓
- ABT-263 solubility [1, 21]: ✓
- ABT-263 solubility [1, 22]: ✓
- ABT-263 solubility [1, 23]: ✓
- ABT-263 solubility [1, 24]: ✓
- ABT-263 solubility [1, 25]: ✓
- color change upon aging [2]: pronounced color darkening
Compound: CC1(C)CCC(c2ccc(Cl)cc2)=C(CN2CCN(c3ccc(C(=O)NS(=O)(=O)c4ccc(N[C@H](CCN5CCOCC5)CSc5ccccc5)c(S(=O)(=O)C(F)(F)F)c4)cc3)CC2)C1.Cl.Cl [ABT-263 bis-HCl salt]

Compound: OCC(O)CS (centres unmarked) [Thioglycerol, thioglycerol]
- inhibition of drug oxidation ([3]; ABT-263 free base 100 mg/g, both vehicle systems (Lipoid S75 MCT, LIT-433)): effective inhibition

Compound: Cc1cc(C(C)(C)C)c(O)c(C(C)(C)C)c1 [BHT, butylated hydroxytoluene]
- inhibition of oxidative degradation [3]: inhibited oxidative degradation to some extent

Compound: O=S([O-])([O-])=S.[Na+].[Na+] [sodium thiosulfate]
- inhibition of oxidative degradation [3]: inhibited oxidative degradation to some extent

Compound: CCCCCCCCCCCCCCCC(=O)OC[C@H](O)[C@H]1OC(=O)C(O)=C1O [ascorbyl palmitate]
- inhibition of oxidative degradation [3]: inhibited oxidative degradation to some extent

Compound: COc1ccc(O)c(C(C)(C)C)c1 [BHA, butylated hydroxyanisole]
- inhibition of oxidative degradation [3]: inhibited oxidative degradation to some extent
- effect on sulfoxide formation ([4]; 0.2% by weight BHA in 15% by weight ABT-263 free base in IPT-253, 4-week study at 40°C without nitrogen purging): no effect
- inhibition of sulfoxide formation ([4]; 0.2% w/w BHA, ABT-263 150 mg/g in IPT-253 and LIT-433, 40°C without nitrogen purging): did not provide any inhibition

- final NaMTBS concentration giving a clear solution [5]: ≤ 9.67 mg/mL
- final NaMTBS concentration at which the lipid solution turned turbid ([5]; 50 mg/ml free base solution in Phosal 53 MCT/ethanol 9:1 v/v, 15% w/v stock solution): ≥ 150 % relative molar concentration
- solubility of neat NaMTBS (solids remained) ([5]; 5 days): < 0.05 % w/w
Compound: O=S([O-])S(=O)(=O)[O-].[Na+].[Na+] [sodium metabisulfite]
- inhibition of oxidative degradation [3]: inhibited oxidative degradation to some extent
- inhibition of formation of total sulfoxides [6]: significantly inhibited

- degradation [7]: significant degradation
- ABT-263 solubility [1, 8]: ✓
- ABT-263 solubility [1, 9]: ✓
- ABT-263 solubility [1, 10]: ✓
- ABT-263 solubility [1, 11]: ✓
- ABT-263 solubility [1, 12]: ✓
- ABT-263 solubility [1, 13]: ✓
- ABT-263 solubility [1, 14]: ✓
- ABT-263 solubility [1, 15]: ✓
- ABT-263 solubility [1, 16]: ✓
- ABT-263 solubility [1, 17]: ✓
- ABT-263 solubility [1, 18]: ✓
- ABT-263 solubility [1, 19]: ✓
- ABT-263 solubility [1, 20]: ✓
- ABT-263 solubility [1, 21]: ✓
- ABT-263 solubility [1, 22]: ✓
- ABT-263 solubility [1, 23]: ✓
- ABT-263 solubility [1, 24]: ✓
- ABT-263 solubility [1, 25]: ✓
Compound: CC1(C)CCC(c2ccc(Cl)cc2)=C(CN2CCN(c3ccc(C(=O)NS(=O)(=O)c4ccc(N[C@H](CCN5CCOCC5)CSc5ccccc5)c(S(=O)(=O)C(F)(F)F)c4)cc3)CC2)C1 [ABT-263]

- inhibition of oxidative degradation [3]: ineffective
Compound: α-tocopherols
